Tests used:
lipoamide = compound: NC(=O)CCCCC1CCSS1 [lipoamide]; test: thermal stability z-score vs DMSO; higher = more thermally stabilized by treatment; details: HeLa, lipoamide concentration 100 µM
Experimental: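 Cellular thermal proteome profiling in HeLa cells. Cells were treated with 100 µM lipoamide for 1 h, with or without 1 mM arsenate for a further 1 h, then heated to ten temperatures (37-66.3 °C), and soluble protein was quantified by TMT mass spectrometry relative to 0.1% DMSO controls. The thermal stability score (sum of log2 fold changes minus the abundance score) was transformed to a z-score; mean of n = 3 experiments.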

potassium arsenate = compound: O=[As]([O-])(O)O.[K+] [potassium arsenate]; test: as above; details: HeLa; arsenate concentration 1 mM
Experimental: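 Cellular thermal proteome profiling in HeLa cells treated with 1 mM arsenate for 1 h (DMSO pretreatment), heated to ten temperatures (37-66.3 °C). Soluble protein was quantified by TMT mass spectrometry relative to DMSO controls; the thermal stability score was transformed to a z-score; mean of n = 3 experiments.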

[1] = arsenate co-treatment: 1 mM arsenate 1 h
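Note: each temperature applied for 3 min, abundance score taken as mean log2 fold change at the two lowest temperatures, z-score obtained by mean subtraction and division by SD.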

Sequence of UniProt P53701 (P53701 whole entry): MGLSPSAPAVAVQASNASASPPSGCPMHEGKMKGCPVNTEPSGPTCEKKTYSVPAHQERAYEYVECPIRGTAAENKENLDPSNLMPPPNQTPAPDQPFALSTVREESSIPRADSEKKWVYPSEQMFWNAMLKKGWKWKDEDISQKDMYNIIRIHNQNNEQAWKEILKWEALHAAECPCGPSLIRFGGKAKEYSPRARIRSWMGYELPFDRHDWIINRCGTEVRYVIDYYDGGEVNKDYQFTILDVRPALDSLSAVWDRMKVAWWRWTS
Sequence of UniProt Q68CZ6 (Q68CZ6 whole entry): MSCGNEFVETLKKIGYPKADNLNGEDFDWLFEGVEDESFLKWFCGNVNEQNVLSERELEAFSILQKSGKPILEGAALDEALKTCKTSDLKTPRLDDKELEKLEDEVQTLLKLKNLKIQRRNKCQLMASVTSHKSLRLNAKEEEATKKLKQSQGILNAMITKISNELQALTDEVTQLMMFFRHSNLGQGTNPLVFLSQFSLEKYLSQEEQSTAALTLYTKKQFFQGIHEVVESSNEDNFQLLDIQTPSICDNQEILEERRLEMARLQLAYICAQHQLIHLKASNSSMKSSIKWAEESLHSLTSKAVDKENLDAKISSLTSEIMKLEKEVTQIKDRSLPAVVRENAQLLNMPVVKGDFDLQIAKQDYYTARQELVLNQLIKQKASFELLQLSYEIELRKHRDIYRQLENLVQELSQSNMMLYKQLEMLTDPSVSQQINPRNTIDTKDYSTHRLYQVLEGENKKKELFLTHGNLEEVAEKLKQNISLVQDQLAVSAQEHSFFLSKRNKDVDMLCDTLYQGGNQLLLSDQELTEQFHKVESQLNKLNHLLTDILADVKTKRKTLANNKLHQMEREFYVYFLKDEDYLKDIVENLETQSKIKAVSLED
Sequence of UniProt O94927 (O94927 whole entry): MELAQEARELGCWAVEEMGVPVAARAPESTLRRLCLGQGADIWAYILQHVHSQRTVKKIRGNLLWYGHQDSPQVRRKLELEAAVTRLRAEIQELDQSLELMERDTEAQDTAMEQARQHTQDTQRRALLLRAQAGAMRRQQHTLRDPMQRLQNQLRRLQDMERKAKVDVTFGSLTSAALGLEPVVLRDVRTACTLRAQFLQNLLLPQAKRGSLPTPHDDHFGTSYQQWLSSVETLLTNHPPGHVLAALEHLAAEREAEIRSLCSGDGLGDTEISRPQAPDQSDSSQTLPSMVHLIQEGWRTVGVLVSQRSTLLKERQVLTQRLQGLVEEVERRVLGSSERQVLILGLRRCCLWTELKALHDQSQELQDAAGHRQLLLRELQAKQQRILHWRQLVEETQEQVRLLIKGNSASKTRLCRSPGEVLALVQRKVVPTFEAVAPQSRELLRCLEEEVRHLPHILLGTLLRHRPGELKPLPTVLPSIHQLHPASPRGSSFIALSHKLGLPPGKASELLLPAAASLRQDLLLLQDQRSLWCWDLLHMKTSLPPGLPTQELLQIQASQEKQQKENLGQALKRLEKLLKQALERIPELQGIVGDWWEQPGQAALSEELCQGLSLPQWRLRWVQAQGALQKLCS
Sequence of UniProt P40939 (P40939 whole entry): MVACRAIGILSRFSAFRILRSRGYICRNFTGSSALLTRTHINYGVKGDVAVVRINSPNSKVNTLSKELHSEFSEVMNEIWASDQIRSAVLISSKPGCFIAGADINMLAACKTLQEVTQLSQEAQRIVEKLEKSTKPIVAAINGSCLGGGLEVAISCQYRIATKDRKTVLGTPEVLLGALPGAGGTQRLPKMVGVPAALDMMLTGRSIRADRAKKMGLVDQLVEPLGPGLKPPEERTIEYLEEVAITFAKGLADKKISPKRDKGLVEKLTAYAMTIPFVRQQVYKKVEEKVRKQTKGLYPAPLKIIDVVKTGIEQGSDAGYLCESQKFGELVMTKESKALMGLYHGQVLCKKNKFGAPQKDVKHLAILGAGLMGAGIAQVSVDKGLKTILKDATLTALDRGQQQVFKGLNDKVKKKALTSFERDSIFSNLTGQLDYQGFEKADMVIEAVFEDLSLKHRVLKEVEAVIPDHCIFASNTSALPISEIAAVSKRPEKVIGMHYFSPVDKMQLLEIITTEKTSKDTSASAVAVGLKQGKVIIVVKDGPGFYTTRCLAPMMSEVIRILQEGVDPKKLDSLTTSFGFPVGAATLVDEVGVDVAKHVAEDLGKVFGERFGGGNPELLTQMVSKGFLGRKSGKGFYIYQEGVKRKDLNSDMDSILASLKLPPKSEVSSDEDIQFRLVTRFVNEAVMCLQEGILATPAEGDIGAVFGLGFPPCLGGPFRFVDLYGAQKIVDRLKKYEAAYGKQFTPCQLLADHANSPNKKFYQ
Sequence of UniProt Q9BSH5 (Q9BSH5 whole entry): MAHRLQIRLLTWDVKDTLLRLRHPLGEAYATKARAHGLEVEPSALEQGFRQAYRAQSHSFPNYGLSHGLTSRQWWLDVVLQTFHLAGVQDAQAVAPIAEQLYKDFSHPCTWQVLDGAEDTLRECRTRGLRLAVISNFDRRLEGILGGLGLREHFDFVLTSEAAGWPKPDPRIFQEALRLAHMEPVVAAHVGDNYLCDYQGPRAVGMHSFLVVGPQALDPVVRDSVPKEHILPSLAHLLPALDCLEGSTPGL
Sequence of UniProt Q9NRV9 (Q9NRV9 whole entry): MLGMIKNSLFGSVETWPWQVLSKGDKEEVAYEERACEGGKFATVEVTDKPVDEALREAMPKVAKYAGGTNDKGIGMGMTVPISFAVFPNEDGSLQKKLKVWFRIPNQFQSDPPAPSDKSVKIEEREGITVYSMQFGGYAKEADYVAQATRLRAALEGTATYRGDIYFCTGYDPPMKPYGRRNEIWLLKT
Sequence of UniProt Q7Z4H7 (Q7Z4H7 whole entry): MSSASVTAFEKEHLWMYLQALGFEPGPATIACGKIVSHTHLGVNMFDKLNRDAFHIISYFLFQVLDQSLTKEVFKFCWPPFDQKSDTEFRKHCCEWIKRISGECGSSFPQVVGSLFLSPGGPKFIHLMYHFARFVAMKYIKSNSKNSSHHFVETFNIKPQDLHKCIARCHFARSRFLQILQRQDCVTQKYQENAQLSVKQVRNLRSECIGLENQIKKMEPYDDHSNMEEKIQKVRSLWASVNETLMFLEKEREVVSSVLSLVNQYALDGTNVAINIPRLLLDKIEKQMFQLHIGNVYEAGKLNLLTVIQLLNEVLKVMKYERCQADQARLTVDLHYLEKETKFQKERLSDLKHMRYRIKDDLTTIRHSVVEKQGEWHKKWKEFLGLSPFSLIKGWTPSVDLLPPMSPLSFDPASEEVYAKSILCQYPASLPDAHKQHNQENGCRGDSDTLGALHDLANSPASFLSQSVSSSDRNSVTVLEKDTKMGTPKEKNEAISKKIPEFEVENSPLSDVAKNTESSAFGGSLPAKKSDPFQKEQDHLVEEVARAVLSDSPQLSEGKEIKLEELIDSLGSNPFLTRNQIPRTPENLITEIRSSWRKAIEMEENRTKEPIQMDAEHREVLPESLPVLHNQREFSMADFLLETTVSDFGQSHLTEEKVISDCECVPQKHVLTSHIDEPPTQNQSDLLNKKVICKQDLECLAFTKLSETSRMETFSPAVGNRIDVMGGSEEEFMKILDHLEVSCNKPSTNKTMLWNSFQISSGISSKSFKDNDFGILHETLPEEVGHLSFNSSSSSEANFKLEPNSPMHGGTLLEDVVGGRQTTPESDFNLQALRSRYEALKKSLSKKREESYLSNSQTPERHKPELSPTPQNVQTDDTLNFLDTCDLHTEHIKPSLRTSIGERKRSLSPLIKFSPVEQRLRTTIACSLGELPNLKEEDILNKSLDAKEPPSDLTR
Sequence of UniProt Q99871 (Q99871 whole entry): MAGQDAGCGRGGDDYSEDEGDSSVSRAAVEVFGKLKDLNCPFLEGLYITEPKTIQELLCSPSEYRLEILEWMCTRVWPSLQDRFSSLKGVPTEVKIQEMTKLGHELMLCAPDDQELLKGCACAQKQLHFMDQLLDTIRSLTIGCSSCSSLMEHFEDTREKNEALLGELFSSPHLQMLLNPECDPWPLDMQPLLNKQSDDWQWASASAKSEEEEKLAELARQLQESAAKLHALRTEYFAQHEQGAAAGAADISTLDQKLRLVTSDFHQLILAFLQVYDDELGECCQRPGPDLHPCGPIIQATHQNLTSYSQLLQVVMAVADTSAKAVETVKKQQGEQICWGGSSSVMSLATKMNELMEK
Sequence of UniProt Q96CS2 (Q96CS2 whole entry): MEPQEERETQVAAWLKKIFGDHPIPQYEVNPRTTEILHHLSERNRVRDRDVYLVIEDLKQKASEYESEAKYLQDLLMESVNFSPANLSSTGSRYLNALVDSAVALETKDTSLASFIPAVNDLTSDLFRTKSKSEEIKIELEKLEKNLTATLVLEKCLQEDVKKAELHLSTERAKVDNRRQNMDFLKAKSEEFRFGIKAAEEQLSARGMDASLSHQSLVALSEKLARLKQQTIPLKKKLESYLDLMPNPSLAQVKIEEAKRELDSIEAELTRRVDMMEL
Sequence of UniProt P12081 (P12081 whole entry): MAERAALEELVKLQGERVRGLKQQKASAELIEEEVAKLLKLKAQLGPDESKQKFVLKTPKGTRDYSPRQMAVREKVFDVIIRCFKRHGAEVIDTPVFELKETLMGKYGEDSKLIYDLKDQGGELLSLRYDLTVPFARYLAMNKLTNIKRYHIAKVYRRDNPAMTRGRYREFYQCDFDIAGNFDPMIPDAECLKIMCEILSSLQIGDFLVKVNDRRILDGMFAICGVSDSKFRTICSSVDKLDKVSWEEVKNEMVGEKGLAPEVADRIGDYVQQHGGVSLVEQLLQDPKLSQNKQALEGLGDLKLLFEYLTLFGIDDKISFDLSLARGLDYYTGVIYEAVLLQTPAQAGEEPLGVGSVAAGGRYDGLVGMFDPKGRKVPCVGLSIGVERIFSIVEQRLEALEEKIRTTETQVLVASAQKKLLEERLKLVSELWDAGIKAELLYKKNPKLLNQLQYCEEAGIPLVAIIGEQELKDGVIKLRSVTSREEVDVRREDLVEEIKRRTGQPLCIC

Target	thermal stability z-score (lipoamide; [1])	thermal stability z-score (lipoamide; arsenate co-treatment: none)	thermal stability z-score (potassium arsenate)
HADHA (UniProt P40939)	-0.0579	0.088	-0.331
HADHB (UniProt P55084)	-0.0335	0.077	-0.422
HAGH (UniProt Q16775)	0.41	-0.0853	0.158
HARS2 (UniProt P49590)	-0.108	-0.629	-0.0959
HARS (UniProt P12081)	-0.0978	-0.228	1.38
HAT1 (UniProt O14929)	0.352	0.375	0.265
HAUS1 (UniProt Q96CS2)	0.0371	0.00541	0.0563
HAUS2 (UniProt Q9NVX0)	-0.143	-0.261	0.0695
HAUS3 (UniProt Q68CZ6)	-0.112	-0.176	-0.102
HAUS4 (UniProt Q9H6D7)	-0.0376	0.0952	0.0479
HAUS5 (UniProt O94927)	0.0805	0.111	-0.0216
HAUS6 (UniProt Q7Z4H7)	0.0315	0.263	0.528
HAUS7 (UniProt Q99871)	0.0237	-0.0345	-0.0643
HAUS8 (UniProt Q9BT25)	0.268	0.632	1.71
HAX1 (UniProt O00165)	-1	-0.895	-0.11
HBS1L (UniProt Q9Y450)	0.179	0.0726	-0.278
HCCS (UniProt P53701)	-0.0583	-0.124	-0.0765
HCFC1 (UniProt P51610)	1.26	1.15	-0.101

Target	thermal stability z-score (lipoamide; [1])	thermal stability z-score (lipoamide; arsenate co-treatment: none)	thermal stability z-score (potassium arsenate)
HDAC1 (UniProt Q13547)		3.56	-0.601
HDAC2 (UniProt Q92769)	4.76	4.53	-0.0176
HDAC3 (UniProt O15379)	-0.0189	-0.0121	-0.0998
HDAC4 (UniProt P56524)	0.426	0.45	-0.19
HDAC7 (UniProt Q8WUI4)	0.158	-0.253	-0.534
HDDC2 (UniProt Q7Z4H3)	-0.204	-0.127	-0.419
HDDC3 (UniProt Q8N4P3)	-0.522	-1.05	-0.222
HDGF (UniProt P51858)	0.026	0.439	0.19
HDGFRP2 (UniProt Q7Z4V5)	0.576	0.499	0.126
HDHD2 (UniProt Q9H0R4)	0.338	0.00313	-0.185
HDHD3 (UniProt Q9BSH5)	-0.136	-0.867	-2.27
HDLBP (UniProt Q00341)	-0.35	0.231	-0.295
HEATR1 (UniProt Q9H583)	-1.73	-1.13	-0.114
HEATR3 (UniProt Q7Z4Q2)	-0.189	0.0325	0.285
HEATR5A (UniProt Q86XA9)	-0.931	0.157	0.782
HEATR5B (UniProt Q9P2D3)	-1.25	-0.638	-0.105
HEATR6 (UniProt Q6AI08)	0.393	0.194	0.868
HEBP1 (UniProt Q9NRV9)	0.436	0.615	-0.000791
